Experimental data published in patent publication US11866689B2, “Splice-switching oligonucleotides and methods of use” (Duke University, priority 2018, dated 2024).

What was measured:
Assay type in all cases: cell-based
full length AR [1] = assay: Full length AR level after SSO transfection of prostate cancer cells (RT-qPCR, Western blot); conditions: prostate cancer cell lines LN95, VCaP; 6.25-400 nM transfected; vs Scramble/Scr control; FIG. 2
Method: (§1) For FIGS. 2 and 3, the experimental methods is described briefly. A total of 6.25, 25, 100, or 400 nM of ARv7 SSO-6, 100 nM of ARv7 SSO-[…], or 100 or 400 nM of Scrambled SSO was diluted in Opti-MEM and mixed with 2 uL Dharmafect 1 (LN95) or RNAiMax (VCaP) diluted in Opti-MEM for a total of 200 uL. The SSO-transfection reagent mixtures were incubated for 10 minutes at room temperature followed by plating in a 12 well plate. A total of 250,000 cells diluted in 800 uL Optimem were seeded atop the SSO-transfection reagent mixtures and incubated for 4 hours at 37° C. and 5% CO2 in a humidified incubator. Media was replaced with complete media after 4 hours (RPMI+10% charcoal stripped FBS for LN95 cells and DMEM+10% FBS for VCaP cells). After an additional 72 or 96 hours of incubation, media was removed and cells were collected in RNA lysis buffer or RIPA buffer containing protease inhibitor (Thermo Fisher). […] RNA was eluted in water and quantified using a Qubit fluorometer (Thermo Fisher). […] Fold Change from Scramble was calculated using the 2^-ΔΔCT method with TBP as the housekeeping gene and the Scrambled SSO as the treatment control. Protein samples were quantified using a Bradford assay (Pierce Scientific) and 25 ug of each cell extract was mixed with SDS sample buffer and submitted to SDS-PAGE. […]

ARv9 = ARv9 level after SSO transfection of prostate cancer cells; conditions: prostate cancer cell lines LN95, VCaP; 6.25-400 nM transfected; vs Scramble/Scr control; FIG. 2
Method: as §1

LN95 cells = assay: Prostate cancer cell proliferation (Incucyte % confluence) after SSO transfection; conditions: 100 nM, transfected twice, 7 days, −/+ enzalutamide, vs Scr, FIG. 4
Method: As depicted in FIG. 4, ARv7 SSO-6 inhibits prostate cancer cell (LN95) proliferation. Briefly, a total of 100 nM of ARv7 SSO-6 or 100 nM of Scrambled SSO was diluted in Opti-MEM and mixed with 2 uL Dharmafect 1 for a total of 200 uL. The SSO-transfection reagent mixtures were incubated for 10 minutes at room temperature followed by plating in a 12 well plate. A total of 250,000 LN95 cells diluted in 800 uL Optimem were seeded atop the SSO-transfection reagent mixtures and incubated for 4 hours at 37 C and 5% CO2 in a humidified incubator. Media was replaced with complete media after 4 hours (RPMI+10% charcoal stripped FBS). 72 hours later cells were lifted using 0.25% trypsin and the transfection procedure was repeated. 4 hours after transfection media was replaced with complete media and cells were gently resuspended by pipetting up and down. Cells were then seeded in to a 96 well plate at 10,000 cells/well and the plate was placed in to the Incucyte S3 live cell imager (Essen Bioscience) and incubated at 37° C. and 5% CO2 for 7 days. % confluence was calculated once per day and fold change from 0 hr was calculated for each time point.

ARv7 [2] = assay: ARv7 level after SSO transfection of prostate cancer cells (RT-qPCR, Western blot); conditions: for ARv7 (fold change from Scramble): vs Scramble/Scr control
Method: A total of 6.25, 25, 100, or 400 nM of ARv7 SSO-6, 100 nM of ARv7 SSO-6ext, or 100 or 400 nM of Scrambled SSO was diluted in Opti-MEM and mixed with 2 uL Dharmafect 1 (LN95) or RNAiMax (VCaP) diluted in Opti-MEM for a total of 200 uL. The SSO-transfection reagent mixtures were incubated for 10 minutes at room temperature followed by plating in a 12 well plate. A total of 250,000 cells diluted in 800 uL Optimem were seeded atop the SSO-transfection reagent mixtures and incubated for 4 hours at 37° C. and 5% CO2 in a humidified incubator. Media was replaced with complete media after 4 hours (RPMI+10% charcoal stripped FBS for LN95 cells and DMEM+10% FBS for VCaP cells). After an additional 72 or 96 hours of incubation, media was removed and cells were collected in RNA lysis buffer or RIPA buffer containing protease inhibitor (Thermo Fisher).
RNA was extracted using the Quick-RNA Miniprep kit (Zymo Research) following manufacturer's protocol. RNA was eluted in water and quantified using a Qubit fluorometer (Thermo Fisher). Reverse transcription (RT) reactions were performed using the ABI High Capacity cDNA Reverse Transcription Kit (Thermo Fisher) using 1 ug of RNA. RT reactions were incubated following manufacturer's protocol in a SimpliAmp thermocycler (Life Technologies). […] RT-qPCR was run on a ViiA7 Real-Time PCR System (Applied Biosystems) using the following conditions: 95° C. for 2 minutes, 40×(95 C for 1 second, 60° C. for 20 seconds). Fold Change from Scramble was calculated using the 2^-ΔΔCT method with TBP as the housekeeping gene and the Scrambled SSO as the treatment control.
RNA was extracted using the Quick-RNA Miniprep kit (Zymo Research) following manufacturer's protocol. RNA was eluted in water and quantified using a Qubit fluorometer (Thermo Fisher). […] Fold Change from Scramble was calculated using the 2^-ΔΔCT method with TBP as the housekeeping gene and the Scrambled SSO as the treatment control.

ARv7 [3] = assay: ARv7 level after morpholino treatment of LN95 cells (RT-qPCR); conditions: 0-2.5 uM in complete media, 72 h, FIG. 6A
Method: (§2) Briefly, LN95 cells were seeded in a 12 well plate in complete media (RPMI+10% charcoal stripped FBS) at 250,000 cells per well and incubated at 37 C and 5% CO2 in a humidified incubator. After 24 hours, 0, 0.5, 1, 1.5, 2, or 2.5 uM of ARv7 morph 1 morpholino or control morpholino was diluted in complete media and added to each well. After 72 additional hours of incubation, media was removed and cells were collected in RNA lysis buffer.
(§3) RNA was extracted using the Quick-RNA Miniprep kit (Zymo Research) following manufacturer's protocol. RNA was eluted in water and quantified using a Qubit fluorometer (Thermo Fisher). Reverse transcription (RT) reactions were performed using the ABI High Capacity cDNA Reverse Transcription Kit (Thermo Fisher) using 1 ug of RNA. RT reactions were incubated following manufacturer's protocol in a SimpliAmp thermocycler (Life Technologies). […] Fold Change from Scramble was calculated using the 2^-ΔΔCT method with TBP as the housekeeping gene and the control morpholino as the treatment control.

full length AR [4] = assay: Full length AR level after morpholino treatment of LN95 cells (RT-qPCR); conditions: 0-2.5 uM in complete media, 72 h, FIG. 6B
Method: as §2, §3

Which results are given for “mG*mC*mC*mA*mA*mC*mC*mC*mG*mG*mA*mA*mU*mU*mU*mU*mU*mC [ARv7 SSO-6]”?
full length AR (full length AR [1]): maintenance; ARv9 (ARv9): maintenance; prostate cancer cell proliferation (% confluence, fold change from 0 hr) (LN95 cells): inhibits; ARv7 (fold change from Scramble) (ARv7 [2]; prostate cancer cell lines LN95, VCaP, 6.25, 25, 100, 400 nM transfected, 72 or 96 h, FIG. 2): dose dependent decrease

With “mC*mA*mG*mC*mC*mT*mT*mT*mC*mT*mT*mC*mA*mG*mG*mG*mT*mC (CAGCCTTTCTTCAGGGTC; all 2'-O-methyl, all phosphorothioate, T or U not given here) [Arv7 Cons1]” as the substance, how does the “ARv7 RNA (fold change from Scramble)” value (ARv7 [2]; LN95, 12.5, 25, 50 nM transfected, 72 h, vs Scrambled SSO, FIG. 5) read?
The value was “decreases ARv7 RNA in a dose-dependent manner”.

Which “ARv7 (fold change from Scramble)” value (ARv7 [2]; LN95, 100 nM transfected, FIG. 3) does the source give for “mG*mC*mC*mA*mA*mC*mC*mC*mG*mG*mA*mA*mU*mU*mU*mU*mU*mC* mU*mA*mG*mU [ARv7 SSO-6ext]” here?
Its value is “decrease”.

What does the source list for “TTGCCAACCCGGAATTTTTCTAGTATGA (all phosphorodiamidate morpholino (PMO)) [ARv7 morph 1]”?
ARv7 (fold change from control morpholino) (ARv7 [3]): dose-dependent decrease; full length AR (full length AR [4]): maintenance
